Structures can show the parent of a compound that is named as a salt.
Legend:
5-HT1 receptor = experiment: Receptor affinity, 3H-5-HT binding; design: species or system rats; conditions: 2 nmol/L 3H-5-HT; read-out: Affinity to 5-HT1 receptor: concentration showing 50% inhibition between ligand and receptor
Experimental: (§1) The receptor solution was prepared as follows. After the rats were decapitated, brain was immediately isolated and weighed. Thereafter, brain samples were homogenized in ten times volumes of ice-cold 0.35 mol/L sucrose (pH 7.4) using glass homogenizer with Teflon pestle, which was revolted by motors. The homogenate was centrifuged at 4° C. at 900×g for 10 min and the supernatant was, furthermore, recentrifuged at 4° C. at 22,000×g for 20 min. The precipitate was suspended with addition of 5 mmol/L phosphate buffer solution (pH 7.4). After the suspension was incubated at 37° C. for 30 min, the suspension was recentrifuged at 4° C. at 20,000×g for 20 min. […]
(§2) ^3H-prazocin was used as a ligand. […] In addition, the nonspecific binding was evaluated with binding value of ^3H-prazocin in the presence of 0.1 μmol/L prazocin. […] After 10 ml of scintillation cocktail was put in it, the radioactivity was measured. Affinity of the compounds of the invention to α1 receptor was evaluated from the inhibition rate of binding between α1 receptor and the ligand.
(§3) Affinities of the compounds of the invention to receptors of α2, D1, D2, 5-HT1 and 5-HT2 were respectively determined in the same manner, while used 0.7 nmol/L ^3H-rauwolscine, 1.4 nmol/L ^3H-SCH-23390, 2.0 nmol/L spiperone, 2 nmol/L ^3H-5-HT and 0.5 nmol/L ^3H-ketanserin as each ligands. […]

[1] = system: brain tissues (striatum, substantia nigra, tuberculum olfactorium, locus coeruleus and raphe); experiment: Biogenic amines released from brain tissue after s.c. administration; type: in vivo, Wistar rats
Experimental: The method described in Life Sci., 56, 611-620 (1995) was used. After Wistar rats were decapitated, appropriate brain tissues (striatum, substantia nigra, tuberculum olfactorium, locus coeruleus and raphe) were isolated quickly and soaked in oxygenated (95% O2 and 5% CO2) Krebs' solution at 37° C. The composition of Krebs' solution (mmol/L) was as follows: NaCl 111, KCl 4.7, CaCl2 2.5, MgSO4 1.64, NaHCO3 25, KH2PO4 1.2, glucose 12 mg/L ascorbic acid and 20 mg/l EDTA-2Na. The preparations, submerged in one organ bath, were as follows: 1) four pieces of striatum (each halved), 2) four pieces of substantia nigra, 3) four pieces of tuberculum olfactorium, 4) eight pieces of locus coeruleus, 5) eight pieces of raphe. After incubating the tissue for 20 min, the Krebs' solution was exchanged. After the tissue was submerged for 20 min in Krebs' solution containing the compounds of the invention, the biogenic amine released during this period was quantified. The compounds of the invention, the (+)-isomer, the racemic compound and control compound, were respectively dissolved in saline, and subcutaneously administered 30 min before dissection of the brain samples. In the case of noradrenaline and dopamine, samples were purified on microcolumns (BDH Chemicals Ltd.) filled with 60 mg of alumina according to the method described in J. Pharmacol. Exp. Ther., 138, 360-372 (1962). In the case of serotonin, samples were purified on 15 mg Sephadex G-10 microcolumns (Pharmacia). Dopamine, noradrenaline and serotonin were quantified by high performance liquid chromatography (Waters 746 data module) with electrochemical detection (Waters 460 electrochemical detector). Waters Resolve 5μ Spherical C18 3.9×150 mm column was used as separating column and triethylamine-phosphate buffer (pH 5.2) containing 200/mg/L octaine sulfonate sodium and 18 mg/L EDTA-2Na with 6% acetonitrile, was used as mobile phase. The amount of appropriate amine released for 20 min was noted as nmol/g tissue. The differences among means were tested using Student's t-test. Significant level was set at P<0.05.

5-HT2 receptor = molecular target: T1, 5-HT2 receptor (Rattus norvegicus, UniProt P14842); experiment: Receptor affinity, 3H-ketanserin binding; design: species or system rats
T1 construct: from tissue; host or cells: rat brain membranes
Experimental: as §1, §2, §3

D2 receptor = molecular target: T2, D2 receptor (Rattus norvegicus, UniProt P61169); experiment: Receptor affinity, spiperone binding; design: species or system rats
T2 construct: from tissue; host or cells: rat brain membranes
Experimental: as §1, §2, §3

[2] = system: isolated rat brain stem (electric-stimulated); experiment: Biogenic amines released from the rat brain stem by electrostimulation; conditions: for Minimum dose causing to release noradrenaline from electric-stimulated brain stem: electrostimulation 3 Hz, 1 ms, 60 V; for Minimum dose causing to release serotonin from electric-stimulated brain stem / Minimum dose causing to release dopamine from electric-stimulated brain stem: electrostimulation
D1 receptor = molecular target: T3, D1 receptor (Rattus norvegicus, UniProt P18901); experiment: Receptor affinity, 3H-SCH-23390 binding; design: species or system rats
T3 construct: from tissue; host or cells: rat brain membranes
Experimental: as §1, §2, §3

α1 receptor = experiment: Receptor affinity, 3H-prazocin binding; design: species or system rats; conditions: 0.25 nmol/L 3H-prazocin; read-out: Affinity to α1 receptor: concentration showing 50% inhibition between ligand and receptor
Experimental: The receptor solution was prepared as follows. After the rats were decapitated, brain was immediately isolated and weighed. Thereafter, brain samples were homogenized in ten times volumes of ice-cold 0.35 mol/L sucrose (pH 7.4) using glass homogenizer with Teflon pestle, which was revolted by motors. The homogenate was centrifuged at 4° C. at 900×g for 10 min and the supernatant was, furthermore, recentrifuged at 4° C. at 22,000×g for 20 min. The precipitate was suspended with addition of 5 mmol/L phosphate buffer solution (pH 7.4). After the suspension was incubated at 37° C. for 30 min, the suspension was recentrifuged at 4° C. at 20,000×g for 20 min. The precipitate was resuspended in 10 ml of 5 mmol/L phosphate buffer solution (pH 8.0) to be receptor solution.
^3H-prazocin was used as a ligand. 0.25 nmol/L of ^3H-prazocin, the compounds of the invention and the receptor solution, which were respectively prepared in 5 mmol/L phosphate buffer (pH 8), were put in tube and the mixture was incubated at 25° C. for 90 min. In addition, the nonspecific binding was evaluated with binding value of ^3H-prazocin in the presence of 0.1 μmol/L prazocin. […] After 10 ml of scintillation cocktail was put in it, the radioactivity was measured. Affinity of the compounds of the invention to α1 receptor was evaluated from the inhibition rate of binding between α1 receptor and the ligand.

mice = experiment: Toxicity test in mice in the single administration; type: in vivo; conditions: 100 mg/kg p.o., observed two weeks

T2 sequence (P61169 whole entry): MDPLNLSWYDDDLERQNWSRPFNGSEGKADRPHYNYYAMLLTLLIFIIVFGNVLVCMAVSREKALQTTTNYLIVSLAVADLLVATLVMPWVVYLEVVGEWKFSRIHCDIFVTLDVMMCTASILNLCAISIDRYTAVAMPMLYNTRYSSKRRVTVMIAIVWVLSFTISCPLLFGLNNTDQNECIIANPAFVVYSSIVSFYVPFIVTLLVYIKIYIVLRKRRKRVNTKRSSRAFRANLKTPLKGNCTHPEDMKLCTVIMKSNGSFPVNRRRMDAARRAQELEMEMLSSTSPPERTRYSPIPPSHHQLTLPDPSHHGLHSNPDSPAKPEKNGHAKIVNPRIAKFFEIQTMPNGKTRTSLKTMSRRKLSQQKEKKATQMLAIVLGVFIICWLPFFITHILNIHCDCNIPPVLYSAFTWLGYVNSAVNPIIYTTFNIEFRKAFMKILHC
T1 sequence (P14842 whole entry): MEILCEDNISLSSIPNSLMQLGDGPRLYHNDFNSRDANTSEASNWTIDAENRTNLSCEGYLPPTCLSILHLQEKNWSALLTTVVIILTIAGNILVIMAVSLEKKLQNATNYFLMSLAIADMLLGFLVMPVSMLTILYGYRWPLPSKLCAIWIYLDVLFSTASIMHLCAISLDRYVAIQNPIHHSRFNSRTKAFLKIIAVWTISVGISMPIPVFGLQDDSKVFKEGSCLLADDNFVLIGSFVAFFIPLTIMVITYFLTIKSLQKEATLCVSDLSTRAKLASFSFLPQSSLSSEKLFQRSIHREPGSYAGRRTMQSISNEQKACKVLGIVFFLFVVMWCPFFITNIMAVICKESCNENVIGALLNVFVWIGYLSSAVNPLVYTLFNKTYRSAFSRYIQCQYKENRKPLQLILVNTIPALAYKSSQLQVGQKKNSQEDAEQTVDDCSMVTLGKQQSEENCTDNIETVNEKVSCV
T3 sequence (P18901 whole entry): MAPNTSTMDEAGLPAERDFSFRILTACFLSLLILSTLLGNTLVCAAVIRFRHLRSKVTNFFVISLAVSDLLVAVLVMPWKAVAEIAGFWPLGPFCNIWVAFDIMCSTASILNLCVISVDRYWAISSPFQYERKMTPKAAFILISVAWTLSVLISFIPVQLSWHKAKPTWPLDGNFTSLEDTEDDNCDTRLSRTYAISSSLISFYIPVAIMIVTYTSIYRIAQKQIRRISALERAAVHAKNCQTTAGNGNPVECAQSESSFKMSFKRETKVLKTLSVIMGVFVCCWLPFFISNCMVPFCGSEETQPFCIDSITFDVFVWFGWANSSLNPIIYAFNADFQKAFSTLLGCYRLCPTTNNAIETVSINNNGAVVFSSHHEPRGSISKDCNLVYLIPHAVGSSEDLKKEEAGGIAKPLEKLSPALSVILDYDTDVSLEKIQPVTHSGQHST

| Compound | IC50 (5-HT1 receptor) | IC50 (5-HT2 receptor) | IC50 (D2 receptor) | Minimum dose causing to release noradrenaline from electric-stimulated brain stem [2] | Minimum dose causing to release serotonin from electric-stimulated brain stem [2] | IC50 (D1 receptor) | IC50 (α1 receptor) | Amount of dopamine released, Striatum ([1]; dose 0.0005 mg/kg s.c.) | Amount of dopamine released, Substantia Nigraia ([1]; dose 0.0005 mg/kg s.c.) | Amount of dopamine released, Tuberculum Olfactorium ([1]; dose 0.0005 mg/kg s.c.) | Amount of noradrenaline released, Locus Coeruleus ([1]; dose 0.0005 mg/kg s.c.) | Amount of serotonin released, Raphe ([1]; dose 0.0005 mg/kg s.c.) | Amount of dopamine released, Striatum ([1]; dose 0.0025 mg/kg s.c.) | Amount of dopamine released, Substantia Nigraia ([1]; dose 0.0025 mg/kg s.c.) | Amount of dopamine released, Tuberculum Olfactorium ([1]; dose 0.0025 mg/kg s.c.) | Amount of noradrenaline released, Locus Coeruleus ([1]; dose 0.0025 mg/kg s.c.) | Amount of serotonin released, Raphe ([1]; dose 0.0025 mg/kg s.c.) | Amount of dopamine released, Striatum ([1]; dose 0.0500 mg/kg s.c.) | Amount of dopamine released, Substantia Nigraia ([1]; dose 0.0500 mg/kg s.c.) | Amount of dopamine released, Tuberculum Olfactorium ([1]; dose 0.0500 mg/kg s.c.) | also measured |
| --- | --- | --- | --- | --- | --- | --- | --- | --- | --- | --- | --- | --- | --- | --- | --- | --- | --- | --- | --- | --- | --- |
| CCCNC(CCC)Cc1cc2ccccc2o1.Cl (racemic) [Racemic compound, (±)-1-(benzofuran-2-yl)-2-propylaminopentane hydrochloride] | > 10 µM | 20 µM | > 10 µM | 5 µg/mL | 1 µg/mL | > 10 µM | > 10 µM | – | – | – | – | – | – | – | – | – | – | – | – | – | Amount of dopamine released, Striatum ([1]; dose 0.0100 mg/kg s.c.): 5.3 ± 0.14 nmol/g · tissue. 20 min.; Amount of dopamine released, Substantia Nigraia ([1]; dose 0.0100 mg/kg s.c.): 6.6 ± 0.04 nmol/g · tissue. 20 min.; Amount of dopamine released, Tuberculum Olfactorium ([1]; dose 0.0100 mg/kg s.c.): 6.5 ± 0.20 nmol/g · tissue. 20 min.; Amount of noradrenaline released, Locus Coeruleus ([1]; dose 0.0100 mg/kg s.c.): 4.3 ± 0.20 nmol/g · tissue. 20 min.; Amount of serotonin released, Raphe ([1]; dose 0.0100 mg/kg s.c.): 0.457 ± 0.04 nmol/g · tissue. 20 min. |
| CCCNC(CCC)Cc1cc2ccccc2o1.Cl (single isomer, unassigned; (+)) [(+)-Isomer, (+)-1-(benzofuran-2-yl)-2-propylaminopentane hydrochloride] | – | > 10 µM | – | 0.5 µg/mL | 10 µg/mL | – | – | 4.4 ± 0.13 nmol/g · tissue. 20 min. | 13.8 ± 0.25 nmol/g · tissue. 20 min. | 6.7 ± 0.06 nmol/g · tissue. 20 min. | 10.3 ± 0.35 nmol/g · tissue. 20 min. | 1.785 ± 0.01 nmol/g · tissue. 20 min. | 4.4 ± 0.10 nmol/g · tissue. 20 min. | 8.4 ± 0.14 nmol/g · tissue. 20 min. | 4.8 ± 0.25 nmol/g · tissue. 20 min. | 7.4 ± 0.15 nmol/g · tissue. 20 min. | 1.138 ± 0.05 nmol/g · tissue. 20 min. | 4.4 ± 0.17 nmol/g · tissue. 20 min. | 7.1 ± 0.24 nmol/g · tissue. 20 min. | 4.8 ± 0.18 nmol/g · tissue. 20 min. | Amount of noradrenaline released, Locus Coeruleus ([1]; dose 0.0500 mg/kg s.c.): 4.4 ± 0.10 nmol/g · tissue. 20 min.; Amount of serotonin released, Raphe ([1]; dose 0.0500 mg/kg s.c.): 0.642 ± 0.02 nmol/g · tissue. 20 min.; Amount of dopamine released, Striatum ([1]; dose 0.1000 mg/kg s.c.): 5.8 ± 0.21 nmol/g · tissue. 20 min.; Amount of dopamine released, Substantia Nigraia ([1]; dose 0.1000 mg/kg s.c.): 15.9 ± 0.25 nmol/g · tissue. 20 min.; Amount of dopamine released, Tuberculum Olfactorium ([1]; dose 0.1000 mg/kg s.c.): 7.3 ± 0.20 nmol/g · tissue. 20 min.; Amount of noradrenaline released, Locus Coeruleus ([1]; dose 0.1000 mg/kg s.c.): 5.6 ± 0.25 nmol/g · tissue. 20 min.; Amount of serotonin released, Raphe ([1]; dose 0.1000 mg/kg s.c.): 0.381 ± 0.01 nmol/g · tissue. 20 min.; Minimum dose causing to release dopamine from electric-stimulated brain stem [2]: 5 µg/mL |
| CCCNC(CCC)Cc1cc2ccccc2o1 (single isomer, unassigned; (-)) [The compound of the invention, (−)-1-(benzofuran-2-yl)-2-propylaminopentane hydrochloride] | > 10 µM | – | > 10 µM | 0.01 µg/mL | 0.0005 µg/mL | > 10 µM | > 10 µM | 4.8 ± 0.16 nmol/g · tissue. 20 min. | 13.8 ± 0.23 nmol/g · tissue. 20 min. | 6.7 ± 0.08 nmol/g · tissue. 20 min. | 15.4 ± 0.55 nmol/g · tissue. 20 min. | 0.914 ± 0.03 nmol/g · tissue. 20 min. | 5.7 ± 0.19 nmol/g · tissue. 20 min. | 13.1 ± 0.21 nmol/g · tissue. 20 min. | 6.9 ± 0.31 nmol/g · tissue. 20 min. | 3.9 ± 0.05 nmol/g · tissue. 20 min. | 0.421 ± 0.03 nmol/g · tissue. 20 min. | 6.5 ± 0.09 nmol/g · tissue. 20 min. | 10.9 ± 0.11 nmol/g · tissue. 20 min. | 7.7 ± 0.19 nmol/g · tissue. 20 min. | Amount of dopamine released, Striatum ([1]; dose 0.0001 mg/kg s.c.): 4.7 ± 0.14 nmol/g · tissue. 20 min.; Amount of dopamine released, Substantia Nigraia ([1]; dose 0.0001 mg/kg s.c.): 14.8 ± 0.36 nmol/g · tissue. 20 min.; Amount of dopamine released, Tuberculum Olfactorium ([1]; dose 0.0001 mg/kg s.c.): 7.2 ± 0.23 nmol/g · tissue. 20 min.; Amount of noradrenaline released, Locus Coeruleus ([1]; dose 0.0001 mg/kg s.c.): 6.6 ± 0.10 nmol/g · tissue. 20 min.; Amount of serotonin released, Raphe ([1]; dose 0.0001 mg/kg s.c.): 1.040 ± 0.03 nmol/g · tissue. 20 min.; Amount of noradrenaline released, Locus Coeruleus ([1]; dose 0.0500 mg/kg s.c.): 4.3 ± 0.25 nmol/g · tissue. 20 min.; Amount of serotonin released, Raphe ([1]; dose 0.0500 mg/kg s.c.): 0.457 ± 0.01 nmol/g · tissue. 20 min.; Survival of mice after single administration (mice): every three numbers of mice survived; Minimum dose causing to release dopamine from electric-stimulated brain stem [2]: 0.05 µg/mL; Noradrenaline, serotonin and dopamine release on electrostimulation (FIG. 1) ([2]; electrostimulated brain stem): confirmed to enhance noradrenaline, serotonin and dopamine release |

Reference: patent publication US6391914B1, “Optically active aminopentane derivatives” (Fujimoto Brothers Co., Ltd., priority 1998, dated 2002)
